# According to the supplement of paper PMC10307832:
# Assays:
# Experiment in all cases: relative viability (nuclei count vs DMSO), 5 days (fraction); higher = more cells survive
# Sulindac + Palbociclib = compound: CC1=C(CC(=O)O)c2cc(F)ccc2/C1=C\c1ccc([S+](C)[O-])cc1 [Sulindac] + CC(=O)c1c(C)c2cnc(Nc3ccc(N4CCNCC4)cn3)nc2n(C2CCCC2)c1=O [Palbociclib] (partner 0.5 µM)
# Procedure, shortened: (§1)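 The day after seeding in 1536-well plates, lung cancer cell lines were treated by pin tool with a single drug, or with a fixed anchor-drug dose together with five library-drug doses (not always all listed) in √10 steps. After 5 days, a combined fix-and-stain solution (final 0.05% Triton X-100, 1% formaldehyde, 1 ug/ml Hoechst) was added. Nuclei counted on 4× images gave relative viability as treated counts over vehicle counts, reported as the median of duplicate plates.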
# [1] = compound: CN[C@@H]1C[C@H]2O[C@@](C)([C@@H]1OC)n1c3ccccc3c3c4c(c5c6ccccc6n2c5c31)C(=O)NC4 [Staurosporine] + CC(C)C[C@H](NC(=O)[C@H](Cc1ccccc1)NC(=O)c1cnccn1)B(O)O [Bortezomib] (partner 0.002 µM)
# Procedure, shortened: as §1
# [2] = compound: CN[C@@H]1C[C@H]2O[C@@](C)([C@@H]1OC)n1c3ccccc3c3c4c(c5c6ccccc6n2c5c31)C(=O)NC4 [Staurosporine] + CS(=O)(=O)CCNCc1ccc(-c2ccc3ncnc(Nc4ccc(OCc5cccc(F)c5)c(Cl)c4)c3c2)o1 [Lapatinib] (partner 2 µM)
# Procedure, shortened: as §1
# [3] = compound: CN[C@@H]1C[C@H]2O[C@@](C)([C@@H]1OC)n1c3ccccc3c3c4c(c5c6ccccc6n2c5c31)C(=O)NC4 [Staurosporine] + COc1cc2c(Oc3ccc(NC(=O)C4(C(=O)Nc5ccc(F)cc5)CC4)cc3F)ccnc2cc1OCCCN1CCOCC1 [Foretinib] (partner 0.25 µM)
# Procedure, shortened: as §1
Cell Line,relative viability (Sulindac + Palbociclib; first compound 0.08 µM),relative viability (Sulindac + Palbociclib; first compound 0.253 µM),relative viability (Sulindac + Palbociclib; first compound 0.8 µM),relative viability (Sulindac + Palbociclib; first compound 2.53 µM),relative viability (Sulindac + Palbociclib; first compound 8 µM),relative viability ([1]; first compound 0.005 µM),relative viability ([1]; first compound 0.01581 µM),relative viability ([1]; first compound 0.05 µM),relative viability ([1]; first compound 0.1581 µM),relative viability ([1]; first compound 0.5 µM),relative viability ([2]; first compound 0.005 µM),relative viability ([2]; first compound 0.05 µM),relative viability ([2]; first compound 0.1581 µM),relative viability ([2]; first compound 0.5 µM),relative viability ([3]; first compound 0.005 µM),relative viability ([3]; first compound 0.01581 µM),relative viability ([3]; first compound 0.05 µM),relative viability ([3]; first compound 0.1581 µM),relative viability ([2]; first compound 0.01581 µM),relative viability ([3]; first compound 0.5 µM)
HCC-44,0.982,1.06,0.924,0.96,0.966,0.708,0.367,0.169,0.142,0.0976,0.956,0.208,0.0947,0.0895,,,,,,
HCC-78,0.481,0.48,0.501,0.444,0.442,0.483,0.388,0.256,0.404,0.332,0.238,0.38,0.263,0.232,0.537,0.459,0.429,0.486,0.22,
HCC-366,0.442,0.36,,0.301,0.555,1.13,,0.208,0.0142,0.0141,1.22,0.278,0.0407,0.0187,1.07,,0.799,0.105,,0.303
HCC-827,0.496,0.552,0.48,0.547,0.465,0.942,0.874,0.915,0.564,0.582,0.223,0.182,0.125,0.163,1.06,0.589,0.645,0.381,0.186,0.395
IA-LM,,,,,,0.188,,0.238,0.131,0.07,0.194,0.158,0.208,0.074,0.423,0.109,0.139,0.1,0.194,0.0733
LCLC-103H,0.465,0.496,0.478,0.453,0.424,1.03,0.613,0.364,0.274,0.251,,,,,0.668,0.178,0.171,0.161,,0.142
LK-2,0.879,0.624,0.496,0.369,0.88,,,,,,1.31,,0.346,0.178,1.07,,1.09,0.437,0.924,0.409
NCI-H358,0.135,0.139,0.129,0.139,0.136,,,,,,0.534,0.259,0.152,0.136,0.835,0.241,0.11,0.0647,0.378,0.0577
NCI-H441,0.193,0.183,0.188,0.207,0.195,0.391,0.209,0.212,0.133,0.126,,,,,0.822,0.503,0.354,0.215,,0.194
NCI-H522,0.972,0.955,0.818,1.17,1.04,,,,,,,,,,,,,,,
NCI-H596,,,,,,1.38,0.549,1,0.282,0.393,1.08,0.419,0.181,0.157,1.32,0.839,0.587,0.297,0.749,0.305
